Data: patent US20060293223A1 (Eli Lilly and Company Patent Division, priority 2003, published 2006)
Positions of bridges follow the written chain, without caps; N, C: chain ends. Non-standard residues stand in square brackets, D forms with d. hCys = N[C@@H](CCS)C(=O)O

system: MC1/MC4; conditions: ratio MC1/MC4
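Note: ratio of EC50 values obtained at MC1 versus MC4 receptors, with MC1 potency measured by luciferase reporter activity in stably transfected cells expressing human MC1.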

Row | Substance | MC1/MC4 selectivity
1 | Ac-Tyr-Arg-cyclo[Cys-Glu-(5-Me-D-His)-D-Phe-Arg-Trp-Cys]-NH2 [Compound 98] | 7.43
2 | Ac-Tyr-Arg-cyclo[Cys-Glu-(5-Me-His)-D-Phe-Arg-Trp-Cys]-NH2 [Compound 97] | 8.03
3 | Ac-Tyr-Arg-cyclo[Cys-Glu-(β-(1,2,4-triazol-3-yl))-Ala)-D-Phe-Arg-Trp-Cys]-NH2 [Compound 106] | 23.95
4 | Ac-Tyr-Arg-cyclo[Cys-Glu-(β-(1,2,4-triazol-3-yl))-D-Ala)-D-Phe-Arg-Trp-Cys]-NH2 [Compound 107] | 1.00
5 | Ac-Tyr-Arg-cyclo[Cys-Glu-(β-(1,3-thiazol-4-yl)-Ala)-D-Phe-Arg-Trp-Cys]-NH2 [Compound 112] | 5.62
6 | Ac-Tyr-Arg-cyclo[Cys-Glu-(β-(2-furyl)-Ala)-D-Phe-Arg-Trp-Cys]-NH2 [Compound 110] | 4.27
7 | Ac-Tyr-Arg-cyclo[Cys-Glu-(β-((1-benzyl)-1,2,4-triazol-3-yl))-D-Ala)-D-Phe-Arg-Trp-Cys]-NH2 [Compound 108] | 5.99
8 | Ac-Tyr-Arg-cyclo[Cys-Glu-(β-((1-benzyl)-1,2,4-triazol-3-yl))-D-Ala)-D-Phe-Arg-Trp-Cys]-NH2 [Compound 109] | 6.05
9 | Ac-Tyr-Arg-cyclo[Cys-Glu-(β-(pyridin-4-yl)-Ala)-D-Phe-Arg-Trp-Cys]-NH2 [Compound 113] | 13.51
10 | Ac-Tyr-Arg-cyclo[Cys-Glu-(β-(thien-2-yl)-Ala)-D-Phe-Arg-Trp-Cys]-NH2 [Compound 111] | 7.67
11 | Ac-Tyr-Arg-cyclo[Cys-Glu-His-(4-Br-D-Phe)-Arg-Trp-Cys]-NH2 [Compound 89] | 71.43
12 | Ac-Tyr-Arg-cyclo[Cys-Glu-His-(4-Cl-D-Phe)-Arg-Trp-Cys]-NH2 [Compound 86] | 66.21
13 | Ac-Tyr-Arg-cyclo[Cys-Glu-His-(4-F-D-Phe)-Arg-Trp-Cys]-NH2 [Compound 83] | 45.95
14 | Ac-Tyr-Arg-cyclo[Cys-Glu-His-(4-Me-D-Phe)-Arg-Trp-Cys]-NH2 [Compound 92] | 12.06
15 | Ac-Tyr-Arg-cyclo[Cys-Glu-His-(4-OMe-D-Phe)-Arg-Trp-Cys]-NH2 [Compound 93] | 1.48
16 | Ac-Tyr-Arg-cyclo[Cys-Glu-His-D-Phe-Arg-Trp-Cys] alcohol [Compound 78] | 9.00
17 | Ac-Tyr-Arg-cyclo[Cys-Glu-His-D-Phe-Arg-Trp-Cys]-2-(2-aminoethoxy)ethanol [Compound 115] | 2.00
18 | Ac-Tyr-Arg-cyclo[Cys-Glu-His-D-Phe-Arg-Trp-Cys]-Lys-Pro alcohol [Compound 122] | 0.90
19 | Ac-Tyr-Arg-cyclo[Cys-Glu-His-D-Phe-Arg-Trp-Cys]-NH2 [Compound 72] | 22.31
20 | Ac-Tyr-Arg-cyclo[Cys-Glu-His-D-Phe-Arg-Trp-Cys]-NH-(CH2)6-NH2 [Compound 117] | 1.00
21 | Ac-Tyr-Arg-cyclo[Cys-Glu-His-D-Phe-Arg-Trp-Cys]-OH [Compound 73] | 12.77
22 | Ac-Tyr-Arg-cyclo[Cys-Glu-His-D-Phe-Arg-Trp-Cys]-Ser alcohol [Compound 116] | 4.00
23 | Ac-Tyr-Arg-cyclo[Cys-Glu-His-D-Phe-Arg-Trp-Cys]-Ser-Pro alcohol [Compound 120] | 1.00
24 | Ac-Tyr-Arg-cyclo[Cys-Glu-His-D-Phe-Arg-Trp-Cys]-glycinol [Compound 114] | 4.00
25 | Ac-Tyr-Arg-cyclo[Cys-Glu-His-D-Phe-Arg-Trp-hCys]-NH2 [Compound 192] | 1.00
26 | Ac-Tyr-Arg-cyclo[D-Cys-Glu-His-D-Phe-Arg-Trp-Cys]-NH2 [Compound 80] | 8.24

Row | Substance | MC1/MC4 selectivity
27 | Ac-Tyr-Arg-cyclo[hCys-Glu-His-D-Phe-Arg-Trp-Cys]-NH2 [Compound 166] | 9.38
28 | Ac-Tyr-Arg-cyclo[hCys-Glu-His-D-Phe-Arg-Trp-hCys]-NH2 [Compound 197] | 1.00
29 | Ac-Tyr-Cit-cyclo[Cys-Glu-(1-Me-His)-D-Phe-Arg-Trp-Cys]-NH2 [Compound 125] | 25.08
30 | Ac-Tyr-Cit-cyclo[Cys-Glu-His-D-Phe-Arg-Trp-Cys]-NH2 [Compound 124] | 18.11
31 | Ac-Tyr-D-Arg-cyclo[Cys-Glu-His-D-Phe-Arg-Trp-Cys]-NH2 [Compound 79] | 21.79
32 | Ac-Tyr-hArg-cyclo[Cys-Glu-His-D-Phe-Arg-Trp-Cys]-NH2 [Compound 126] | 22.64
33 | Ac-VCEH[dF]RWC-NH2 (disulfide 2-8) [Compound 63] | 30.51
34 | Ac-YKCEH[dF]RWC-NH2 (disulfide 3-9) [Compound 128] | 22.46
35 | Ac-YRCDH[dF]RWC-NH2 (disulfide 3-9) [Compound 7] | 15.00
36 | Ac-YRCEH[dF]RWCE-NH2 (disulfide 3-9) [Compound 118] | 4.52
37 | Ac-YRCEH[dF]RWCKP-NH2 (disulfide 3-9) [Compound 121] | 0.74
38 | Ac-YRCEH[dF]RWCRF-NH2 (disulfide 3-9) [Compound 123] | 2.42
39 | Ac-YRCEH[dF]RWCSP-NH2 (disulfide 3-9) [Compound 119] | 0.86
40 | Ac-YRCFH[dF]RWC-NH2 (disulfide 3-9) [Compound 19] | 7.64
41 | Ac-YRCGH[dF]RWC-NH2 (disulfide 3-9) [Compound 12] | 6.72
42 | Ac-YRCIH[dF]RWC-NH2 (disulfide 3-9) [Compound 14] | 12.54
43 | Ac-YRCMH[dF]RWC-NH2 (disulfide 3-9) [Compound 18] | 8.15
44 | Ac-YRCNH[dF]RWC-NH2 (disulfide 3-9) [Compound 5] | 5.00
45 | Ac-YRCPH[dF]RWC-NH2 (disulfide 3-9) [Compound 20] | 4.81
46 | Ac-YRCQH[dF]RWC-OH (disulfide 3-9) [Compound 9] | 10.00
47 | Ac-YRCQH[dF]RWC-OMe (disulfide 3-9) [Compound 10] | 9.50
48 | Ac-YRCRH[dF]RWC-NH2 (disulfide 3-9) [Compound 4] | 0.26
49 | Ac-YRCSH[dF]RWC-NH2 (disulfide 3-9) [Compound 21] | 10.27
50 | Ac-YRCTH[dF]RWC-NH2 (disulfide 3-9) [Compound 22] | 6.85
51 | Ac-YRCVH[dF]RWC-NH2 (disulfide 3-9) [Compound 25] | 11.00
52 | Ac-YRCWH[dF]RWC-NH2 (disulfide 3-9) [Compound 23] | 10.54

Row | Substance | MC1/MC4 selectivity
53 | Ac-YRCYH[dF]RWC-NH2 (disulfide 3-9) [Compound 24] | 8.00
54 | Ac-YR[hCys]H[dF]RWC-NH2 (disulfide 3-8) [Compound 164] | 7.79
55 | Ac-YR[hCys]H[dF]RWC-OH (disulfide 3-8) [Compound 165] | 13.53
56 | Ac-YR[hCys]H[dF]RW[hCys]-NH2 (disulfide 3-8) [Compound 196] | 4.98
57 | Ac-YSCEH[dF]RWC-NH2 (disulfide 3-9) [Compound 129] | 22.16
58 | Ac-YVCEH[dF]RWC-NH2 (disulfide 3-9) [Compound 130] | 26.88
59 | Ac-[hCys]H[dF]RW[hCys]-NH2 (disulfide 1-6) [Compound 193] | 26.59
60 | Ac-cyclo(S—CH2—S)[Cys-His-D-Phe-Arg-Trp-Cys]-NH2 [Compound 198] | 13.07
61 | Ac-cyclo[Cys-Glu-(1-Me-His)-D-Phe-Arg-Trp-Cys]-NH2 [Compound 34] | 11.52
62 | Ac-cyclo[Cys-Glu-His-(4-Br-D-Phe)-Arg-Trp-Cys]-NH2 [Compound 33] | 79.54
63 | Ac-cyclo[Cys-Glu-His-(4-Cl-D-Phe)-Arg-Trp-Cys]-NH2 [Compound 32] | 66.88
64 | Ac-cyclo[Cys-Glu-His-(4-F-D-Phe)-Arg-Trp-Cys]-NH2 [Compound 31] | 57.02
65 | Ac-cyclo[Cys-His-(4-Cl-D-Phe)-Arg-Trp-hCys]-NH2 [Compound 185] | 269.59
66 | Ac-cyclo[Cys-His-D-Phe-Arg-Trp-hCys]-NH2 [Compound 183] | 53.39
67 | Ac-cyclo[hCys-His-(4-Cl-D-Phe)-Arg-Trp-Cys]-NH2 [Compound 140] | 128.15
68 | Ac-cyclo[hCys-His-(4-Cl-D-Phe)-Arg-Trp-penicillamine]-NH2 [Compound 169] | 1804.00
69 | Ac-cyclo[hCys-His-(4-F-D-Phe)-Arg-Trp-Cys]-NH2 [Compound 139] | 44.29
70 | Ac-cyclo[hCys-His-(β-cyclohexyl-D-Ala)-Arg-Trp-Cys]-NH2 [Compound 167] | 3.36
71 | Ac-cyclo[hCys-His-D-Phe-Arg-Trp-Cys]-OH [Compound 138] | 38.81
72 | Ac-cyclo[hCys-His-D-Phe-Arg-Trp-penicillamine]-NH2 [Compound 168] | 212.71
73 | Ac-diaminobutyryl-cyclo[Cys-Glu-His-D-Phe-Arg-Trp-Cys]-NH2 [Compound 44] | 15.00
74 | Ac-diaminopropionyl-cyclo[Cys-Glu-His-D-Phe-Arg-Trp-Cys]-NH2 [Compound 43] | 11.00
75 | Ac-hArg-cyclo[Cys-Glu-His-D-Phe-Arg-Trp-Cys]-NH2 [Compound 54] | 20.85
76 | Ac-nLeu-cyclo[Cys-Glu-His-D-Phe-Arg-Trp-Cys]-NH2 [Compound 60] | 29.95
77 | Ac-nLeu-cyclo[Cys-Glu-His-D-Phe-Arg-Trp-Cys]-Ser-Pro-NH2 [Compound 61] | 1.70
78 | Ac-nLeu-cyclo[hCys-His-D-Phe-Arg-Trp-Cys]-NH2 [Compound 160] | 0.90
